Results published in ChEMBL document CHEMBL1133834, “Design and synthesis of Pfmrk inhibitors as potential antimalarial agents” (Bioorg Med Chem Lett, 2001).

Each compound was assayed against T1, Protein kinase Pfmrk (Plasmodium falciparum, UniProt P90584) (assay: Inhibition of Plasmodium falciparum cyclin dependent protein kinase (Pfmrk)).
T1 sequence (P90584 whole entry): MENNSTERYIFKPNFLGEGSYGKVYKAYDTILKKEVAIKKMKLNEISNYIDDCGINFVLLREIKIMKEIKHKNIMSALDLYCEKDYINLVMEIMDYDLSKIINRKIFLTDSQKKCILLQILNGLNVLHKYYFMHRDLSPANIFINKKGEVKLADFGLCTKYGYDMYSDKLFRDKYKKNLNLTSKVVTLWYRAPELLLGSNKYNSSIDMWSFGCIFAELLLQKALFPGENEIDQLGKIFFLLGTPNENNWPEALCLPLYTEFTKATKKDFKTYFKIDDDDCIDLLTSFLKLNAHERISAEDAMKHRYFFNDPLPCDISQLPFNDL

**Q.** With `Oc1ccc2nc3oc4ccccc4c3c(O)c2c1` as the compound, how does the IC50 read?
**A.** 187 µM

**Q.** `Oc1c2ccccc2nc2oc3ccccc3c12` was tested. Which IC50 did it give?
**A.** < 371 µM

**Q.** With `Oc1ccc2nc(O)c3c4ccccc4oc3c2c1` as the compound, how does the IC50 read?
**A.** 539 µM

**Q.** For `OCCOc1cccc(-c2cc3ccccc3nc2O)c1`, which IC50 is on record?
**A.** 18 µM

**Q.** Which IC50 does the source give for `O=C(O)COc1cccc(-c2cc3ccccc3nc2O)c1` here?
**A.** 102 µM

These compounds were tested against T1, Protein kinase Pfmrk (assay: Inhibition of Plasmodium falciparum cyclin dependent protein kinase (No inhibition)).

**Q.** For `Oc1nc2ccccc2c2oc3ccccc3c12`, which IC50 is on record?
**A.** Not Active

**Q.** `Oc1[nH]c2ccccc2c2nc3ccccc3c1-2` was tested. Which IC50 did it give?
**A.** Not Active
